How the values were obtained:
Settings in all cases: 48 h
NCI-H295R [1] = test: AC50 viability; higher = less potent
Outline: (§1)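 Three adrenocortical carcinoma cell lines were seeded at 500–1,000 cells/well in 5 µL medium in 1,536-well plates. 23 nL of each MIPE 5.0 library compound was added at 11 concentrations. After 48 h (per the protocol name), CellTiter-Glo was added for 15 minutes at room temperature and luminescence was read. Signals were normalised per plate to vehicle and empty-well controls. AC50 and area under the curve came from fitted concentration-response curves, keeping only inhibitory or non-responding curve classes.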

NCI-H295R [2] = test: area under concentration-response curve (viability) (AUC (a.u.)); higher = less active
Outline: as §1

CU-ACC2 = test: as above
Outline: as §1

CU-ACC1 = test: as above
Outline: as §1

| Structure (SMILES) | AC50 viability (NCI-H295R [1]) [µM] | area under concentration-response curve (NCI-H295R [2]) | area under concentration-response curve (CU-ACC2) | area under concentration-response curve (CU-ACC1) |
| --- | --- | --- | --- | --- |
| NCC(=O)Nc1ccc(-n2nc(C(F)(F)F)cc2-c2ccc3c(ccc4ccccc43)c2)cc1 | 23.5 | 551 | – | – |
| Cc1ccc(Nc2nnc(Cc3ccncc3)c3ccccc23)cc1Br | 18.6 | 438 | – | – |
| COc1cc(Nc2ncc(F)c(Nc3ccc4c(n3)N(COP(=O)(O)O)C(=O)C(C)(C)O4)n2)cc(OC)c1OC | 14.8 | 512 | – | – |
| CCOc1cc2c(c(F)c1OCC)C(=N)N(CC(=O)c1cc(N3CCOCC3)c(OC)c(C(C)(C)C)c1)C2 | 20.9 | 492 | – | – |
| CCN(CC)CCCCNc1ncc2cc(-c3cc(OC)cc(OC)c3)c(NC(=O)NC(C)(C)C)nc2n1 | 23.5 | 476 | – | – |
| CN(C)CC[C@H](CSc1ccccc1)Nc1ccc([S+](=O)([O-])NC(=O)c2ccc(N3CCN(Cc4ccccc4-c4ccc(Cl)cc4)CC3)cc2)cc1[N+](=O)[O-] | 18.6 | 535 | – | – |
| Cc1ccc([C@@H]2O[C@H](CO)[C@@H](O)[C@H](O)[C@H]2O)cc1Cc1ccc(-c2ccc(F)cc2)s1 | 23.5 | 521 | – | – |
| CCCCc1oc2ccccc2c1C(=O)c1cc(I)c(OCCN(CC)CC)c(I)c1 | 23.5 | 479 | – | – |
| CC(=O)N1CCN(c2ccc(OC[C@H]3CO[C@](Cn4ccnc4)(c4ccc(Cl)cc4Cl)O3)cc2)CC1 | 20.9 | 342 | – | – |
| CN(C)CC(=O)N1CCC(CC1)C2=CC=C(NC(=O)C3=NC(=C[NH]3)C#N)C(=C2)\C4=C\CCCC4 | 23.5 | 553 | – | – |
| O=C(Nc1nc2cccc(-c3ccc(CN4CC[S+](=O)([O-])CC4)cc3)n2n1)C1CC1 | 18.6 | 535 | – | – |
| O=C(c1ccc(OCCN2CCCCC2)cc1)c1c(-c2ccc(O)cc2)sc2cc(O)ccc12 | 23.5 | 557 | – | – |
| CC(=O)O[C@@]12CO[C@@H]1C[C@H](O)[C@]3(C)[C@@H]2[C@H](OC(=O)C4=CC=CC=C4)[C@]5(O)C[C@H](O)/C(=C(/[C@@H](O)C3=O)C5(C)C)C | – | 491 | 539 | 507 |
| Cc1cc(SCc2sc(-c3ccc(C(F)(F)F)cc3)nc2C)ccc1OCC(=O)O | – | 540 | 608 | 517 |
| C[C@H](CCC(=O)O)[C@H]1CCC2C3C[C@H](O)[C@@H]4C[C@H](O)CC[C@]4(C)C3CC[C@@]21C (stereo not given in full) | – | 470 | 501 | 454 |
| CCN([C@H]1CC[C@@H](CC1)N(C)CCOC)C2=C(C)C(=CC(=C2)C#CCN3CCOCC3)C(=O)NC\C4=C(C)\C=C(\C)NC4=O | – | 552 | 500 | 536 |
| N#Cc1ccc(N(Cc2ccc(Br)cc2)n2cnnc2)cc1 | – | 598 | 633 | 413 |
| CC(C)C[C@H](CC(=O)O)C(=O)N[C@@H](Cc1c[nH]c2ccccc12)C(=O)N[C@@H](C)c1ccccc1 | – | 577 | 622 | 433 |
| NC(=O)c1ncn([C@@H]2O[C@H](CO)[C@@H](O)[C@H]2O)n1 | – | 530 | 504 | 511 |
| C[C@](N)(Cc1ccc(O)c(O)c1)C(=O)O | – | 524 | 477 | 475 |
| N#Cc1ccc(C(c2ccc(C#N)cc2)n2cncn2)cc1 | – | 516 | 428 | 488 |
| CCC(=O)[N-]S(=O)(=O)c1ccc(-c2c(-c3ccccc3)noc2C)cc1.[Na+] | – | 595 | 656 | 549 |
| N[S+](=O)([O-])c1cc2c(cc1Cl)NCN[S+]2(=O)[O-] | – | 430 | 563 | 480 |
| COc1cc2c(cc1OC)CN(CCc1ccc(NC(=O)c3cc(OC)c(OC)cc3NC(=O)c3cnc4ccccc4c3)cc1)CC2 | – | 569 | 640 | 560 |
